Laboratory results reported in patent publication US12583848B2, “Isoxazole-3-carboxamide derivatives and their use for treatment of diseases caused by virus infection” (Collaborations Pharmaceuticals, Inc., priority 2019, dated 2026).

Tested on: Enterovirus 68 (strain US/KY/14-18953)
Experiment: microbe, parasite or virus in culture
Format: cell-based
Set-up: SI50: unit not given beside the values

Cc1cc(-c2noc(C(F)(F)F)n2)ccc1OCCCc1cc(C(=O)N(C)C)no1 [Compound 8, N,N-dimethyl-5-(3-{2-methyl-4-[5-(trifluoromethyl)-1,2,4-oxadiazol-3-yl]phenoxy}propyl)isoxazole-3-carboxamide]
SI50: >520 | EC50 (Enterovirus D): 18 nM
